Our source for the logP values is the SangsterLogP compilation.

The structures appear in SMILES notation.

This data set can be described thus: method code SF-AS, from DOI: 10.1016/0165-022x(96)00008-5, PMID: 8844325.
Regarding `CC1(C)CCC(C(F)(F)F)=[N+]1[O-]`, the logP is 0.2.
Under `CC(C)(C)[N+]([O-])=Cc1ccc(C#N)cc1` stands 0.52.
Under `Cc1cccc(C=[N+]([O-])C(C)(C)C)c1` stands 1.58; under `CC(C)(C)[N+]([O-])=Cc1cccc(O)c1`, 1; under `CC1(C)CCC(c2ccccc2)=[N+]1[O-]`, 1.03.
Regarding `CC(C)(C)[N+]([O-])=Cc1ccc(C(=O)O)cc1`, the lipophilicity (logP) worked out at 1.05.
Under `CC(C)(C)[N+]([O-])=Cc1ccc(Cl)cc1` stands 2.39; under `CC(C)(C)[N+]([O-])=Cc1ccc([N+](=O)[O-])cc1`, 1.39; under `Cc1ccccc1C=[N+]([O-])C(C)(C)C`, 1.53.
For `CC(C)(C)[N+]([O-])=Cc1ccccc1O`, the logP was found to be 1.31.
Regarding `CC(C)(C)[N+]([O-])=Cc1cc[n+]([O-])cc1`, the logP was -0.82.
For the compound `CC(C)(C)[N+]([O-])=Cc1ccc(O)cc1`, the lipophilicity (logP) amounted to 0.58.
Under `CC(C)(C)[N+]([O-])=Cc1ccncc1` stands 0.4; under `CC(C)(C)[N+]([O-])=Cc1ccccc1Br`, 2.52; under `COc1cc(OC)c(C=[N+]([O-])C(C)(C)C)c(OC)c1`, 1.19.
`CC(C)(C)[N+]([O-])=Cc1cccc([N+](=O)[O-])c1` gave a logP of 1.3.
To `CC1(C)C=[N+]([O-])C(C)(C)C1` belongs -0.15; to `CC(C)(C)[N+]([O-])=Cc1ccc(Br)cc1`, 1.98.
To `CC(C)(C)[N+]([O-])=Cc1ccccc1[N+](=O)[O-]` belongs 0.84; to `COc1cccc(C=[N+]([O-])C(C)(C)C)c1`, 1.41.

By logP is commonly meant a log measure of how a compound divides between an organic and an aqueous phase. Read a low logP as a more hydrophilic compound.
